Active and inactive are the calls of the source. No cut-off for these calls is given here.
Columns and labels:
[1] = Acute toxicity in po dosed mouse; type: organism-based; conditions: in vivo
Rattus norvegicus [2] = assay: Antihypertensive activity in spontaneously hypertensive rat model assessed as reduction in blood pressure at 10 mg/kg, po after 3 hrs; type: functional; set-up: scale not given: the % may be the effect or the level left
Rattus norvegicus [3] = assay: Antihypertensive activity in spontaneously hypertensive rat model assessed as reduction in blood pressure at 10 mg/kg, po after 24 hrs; type: functional; set-up: scale not given: the % may be the effect or the level left
Rattus norvegicus [4] = assay: Antihypertensive activity in spontaneously hypertensive rat model assessed as reduction in blood pressure at 30 mg/kg, po after 3 hrs; type: functional; set-up: scale not given: the % may be the effect or the level left
Rattus norvegicus [5] = assay: Antihypertensive activity in spontaneously hypertensive rat model assessed as reduction in blood pressure at 30 mg/kg, po after 24 hrs; type: functional; set-up: scale not given: the % may be the effect or the level left
Mus musculus [6] = assay: Analgesic activity in mouse assessed as inhibition of acetic acid-induced writhing at 40 mg/kg, po administered 30 mins prior to acetic acid challenge measured after 5 mins for 20 mins; type: functional
Mus musculus [7] = assay: Antianxiety activity in albino BALB/cJ mouse assessed as reduction in footshock-induced fighting behavior at 10 mg/kg, po after 30 to 90 mins; type: functional; set-up: scale not given: the % may be the effect or the level left
Rattus norvegicus [8] = assay: Antianxiety activity in Long-Evans rat assessed as reduction in motor activity at 5 mg/kg, po after 2 hrs relative to vehicle-treated control; type: functional; set-up: scale not given: the % may be the effect or the level left
Rhesus monkey [9] = assay: Antianxiety activity in rhesus monkey assessed as antiagressive behavior at 10 mg/kg, po measured every hour post dosing; type: functional, organism-based; set-up: dose 10 mg/kg; conditions: Macaca mulatta
Rattus norvegicus [10] = assay: Antipsychotic activity in rat assessed as reduction of methamphetamine-induced hyperactivity at 5 mg/kg, po administered prior to methamphetamine challenge relative to vehicle-treated control; type: functional; set-up: scale not given: the % may be the effect or the level left
Mus musculus [11] = assay: Increase in footshock-induced fighting behavior in albino BALB/cJ mouse at 10 mg/kg, po after 30 to 90 mins; type: functional
Rattus norvegicus [12] = assay: Antisecretory activity in Sprague-Dawley rat assessed as decrease in acid output at 50 mg/kg, po administered 30 mins prior to pylorus ligation measured after 4 hrs relative to control; type: functional; set-up: scale not given: the % may be the effect or the level left
Rattus norvegicus [13] = assay: Antisecretory activity in Sprague-Dawley rat assessed as decrease in pepsin concentration at 50 mg/kg, po administered 30 mins prior to pylorus ligation measured after 4 hrs relative to control; type: functional; set-up: scale not given: the % may be the effect or the level left
Rattus norvegicus [14] = assay: Antisecretory activity in Sprague-Dawley rat assessed as decrease in pepsin output at 50 mg/kg, po administered 30 mins prior to pylorus ligation measured after 4 hrs relative to control; type: functional; set-up: scale not given: the % may be the effect or the level left
Rattus norvegicus [15] = species on record: Rattus norvegicus; assay: animal or person; type: functional; conditions: Charles River, route oral
Description: Antidiarrheal activity in Charles River rat assessed as inhibition of castor oil-induced diarrhea by measuring protected animals at 0.5 mg/kg, po administered 1 hr prior to castor oil challenge measured after 1 hr relative to vehicle-treated control

Rattus norvegicus [16] = assay: Antidiarrheal activity in Charles River rat assessed as inhibition of castor oil-induced diarrhea by measuring protected animals at 0.1 mg/kg, po administered 1 hr prior to castor oil challenge measured after 1 hr relative to vehicle-treated control; type: functional
Rattus norvegicus [17] = assay: Antidiarrheal activity in Charles River rat assessed as inhibition of castor oil-induced diarrhea by measuring protected animals at 0.05 mg/kg, po administered 1 hr prior to castor oil challenge measured after 1 hr relative to vehicle-treated control; type: functional
Rattus norvegicus [18] = assay: Antidiarrheal activity in Charles River rat assessed as inhibition of castor oil-induced diarrhea by measuring protected animals at 0.5 mg/kg, po administered for 2 days followed by 0.5 mg/kg, po on test day administered 1 hr prior to castor oil challenge measured after 1 hr relative to vehicle-treated control; type: functional
Rattus norvegicus [19] = assay: Antidiarrheal activity in Charles River rat assessed as inhibition of castor oil-induced diarrhea by measuring protected animals at 0.5 mg/kg, po administered for 2 days followed by 1 mg/kg, po on test day administered 1 hr prior to castor oil challenge measured after 1 hr relative to vehicle-treated control; type: functional
Rattus norvegicus [20] = assay: Antipsychotic activity in rat assessed as reduction of methamphetamine-induced hyperactivity at 0.5 mg/kg, po administered prior to methamphetamine challenge relative to vehicle-treated control; type: functional; set-up: scale not given: the % may be the effect or the level left
Rattus norvegicus [21] = assay: Antipsychotic activity in rat assessed as reduction of methamphetamine-induced hyperactivity at 2 mg/kg, po administered prior to methamphetamine challenge relative to vehicle-treated control; type: functional; set-up: scale not given: the % may be the effect or the level left
Mus musculus [22] = assay: Antidepressant activity in po dosed mouse assessed as potentiation of DOPA-induced effect administered 4 hrs prior to DOPA challenge; type: functional; conditions: read-out: MED
Mus musculus [23] = assay: Anticonvulsant activity in po dosed mouse assessed as dose required to protect 80% of animal measured after 1 to 4 hrs by audiogenic seizure test; type: functional
Rattus norvegicus [24] = assay: Antihypertensive activity in spontaneously hypertensive rat model assessed as reduction in blood pressure at 0.3 mg/kg, po after 3 hrs; type: functional; set-up: scale not given: the % may be the effect or the level left
Rattus norvegicus [25] = assay: Antihypertensive activity in spontaneously hypertensive rat model assessed as reduction in blood pressure at 0.3 mg/kg, po after 24 hrs; type: functional; set-up: scale not given: the % may be the effect or the level left
Felis catus [26] = assay: Hypnotic activity in cat assessed as increase in total sleep time at 2 mg/kg administered orally through diet measured for 12 hrs by EEG analysis; type: functional; conditions: route oral
Felis catus [27] = assay: Hypnotic activity in cat assessed as decrease in total sleep time at 0.5 mg/kg administered orally through diet measured for 12 hrs by EEG analysis; type: functional; conditions: route oral
Felis catus [28] = assay: Hypnotic activity in cat assessed as increase in non-REM sleep time at 2 mg/kg administered orally through diet measured for 12 hrs by EEG analysis; type: functional; conditions: route oral
Felis catus [29] = assay: Hypnotic activity in cat assessed as decrease in non-REM sleep time at 0.5 mg/kg administered orally through diet measured for 12 hrs by EEG analysis; type: functional; conditions: route oral
Rattus norvegicus [30] = assay: Antisecretory activity in Sprague-Dawley rat assessed as decrease in volume at 50 mg/kg, po administered 30 mins prior to pylorus ligation measured after 4 hrs relative to control; type: functional; set-up: scale not given: the % may be the effect or the level left
Rattus norvegicus [31] = assay: Antisecretory activity in Sprague-Dawley rat assessed as decrease in acidity at 50 mg/kg, po administered 30 mins prior to pylorus ligation measured after 4 hrs relative to control; type: functional; set-up: scale not given: the % may be the effect or the level left
Mus musculus [32] = assay: Analgesic activity in po dosed mouse assessed as inhibition of acetic acid-induced writhing administered 30 mins prior to acetic acid challenge measured after 5 mins for 20 mins; type: functional
Rattus norvegicus [33] = assay: Analgesic activity in po dosed Sprague-Dawley rat after 15 to 90 mins by tail flick test; type: functional
Mus musculus [34] = assay: Antianxiety activity in albino BALB/cJ mouse assessed as reduction in footshock-induced fighting behavior at 5 mg/kg, po after 30 to 90 mins; type: functional; set-up: scale not given: the % may be the effect or the level left
Mus musculus [35] = assay: Antianxiety activity in albino BALB/cJ mouse assessed as reduction in footshock-induced fighting behavior at 1 mg/kg, po after 30 to 90 mins; type: functional; set-up: scale not given: the % may be the effect or the level left
Rhesus monkey [36] = assay: Antianxiety activity in po dosed rhesus monkey assessed as antiagressive behavior measured every hour post dosing; type: functional; conditions: Macaca mulatta, read-out: MED
Canis familiaris = assay: Antianxiety activity in po dosed dog assessed as ataxia administered as single dose measured up to 24 hrs; type: functional; conditions: Canis lupus familiaris, read-out: MED
Rattus norvegicus [37] = assay: Antidiarrheal activity in Charles River rat assessed as inhibition of castor oil-induced diarrhea by measuring protected animals at 0.4 mg/kg, po administered 1 hr prior to castor oil challenge measured after 1 hr relative to vehicle-treated control; type: functional
Rattus norvegicus [38] = assay: Antidiarrheal activity in Charles River rat assessed as inhibition of castor oil-induced diarrhea by measuring protected animals at 0.8 mg/kg, po administered 1 hr prior to castor oil challenge measured after 1 hr relative to vehicle-treated control; type: functional
Rattus norvegicus [39] = assay: Antipsychotic activity in rat assessed as reduction of methamphetamine-induced hyperactivity at 2.5 mg/kg, po administered prior to methamphetamine challenge relative to vehicle-treated control; type: functional; set-up: scale not given: the % may be the effect or the level left
Rattus norvegicus [40] = assay: Antihypertensive activity in spontaneously hypertensive rat model assessed as reduction in blood pressure at 5 mg/kg, po after 3 hrs; type: functional; set-up: scale not given: the % may be the effect or the level left
Rattus norvegicus [41] = assay: Antihypertensive activity in spontaneously hypertensive rat model assessed as reduction in blood pressure at 5 mg/kg, po after 24 hrs; type: functional; set-up: scale not given: the % may be the effect or the level left
Felis catus [42] = assay: Hypnotic activity in cat assessed as increase in total sleep time at 0.5 mg/kg administered orally through diet measured for 12 hrs by EEG analysis; type: functional; conditions: route oral
Felis catus [43] = assay: Hypnotic activity in cat assessed as increase in non-REM sleep time at 0.5 mg/kg administered orally through diet measured for 12 hrs by EEG analysis; type: functional; conditions: route oral
Rattus norvegicus [44] = assay: Antianxiety activity in Long-Evans rat assessed as reduction in motor activity at 1 mg/kg, po after 2 hrs relative to vehicle-treated control; type: functional; set-up: scale not given: the % may be the effect or the level left
Rattus norvegicus [45] = assay: Antianxiety activity in Long-Evans rat assessed as reduction in motor activity at 10 mg/kg, po after 2 hrs relative to vehicle-treated control; type: functional; set-up: scale not given: the % may be the effect or the level left

CC1CCC2=C(C1)c1c(O)cc(C(C)CCCN(C)C)cc1OC2(C)C (configuration not stated)
LD50 [1]: ≥ 1000 mg/kg | Activity (Rattus norvegicus [2]): 9% | Activity (Rattus norvegicus [3]): 13% | Activity (Rattus norvegicus [4]): 10% | Activity (Rattus norvegicus [5]): 6% | inhibition in vivo at 40 mg/kg (Mus musculus [6]): 18% | Activity (Mus musculus [7]): 38% | Activity (Rattus norvegicus [8]): 12% | Activity (Rhesus monkey [9]): inactive | Activity (Rattus norvegicus [10]): 20%

CC1CCC2=C(C1)c1c(O)cc(C(C)CCCc3ccc(F)cc3)cc1OC2(C)C (configuration not stated)
Activity (Mus musculus [11]): 26% | Activity (Rattus norvegicus [12]): 39.6% | Activity (Rattus norvegicus [13]): 11.4% | Activity (Rattus norvegicus [14]): 43.7% | inhibition in vivo at 0.5 mg/kg (Rattus norvegicus [15]): 70% | inhibition in vivo at 0.1 mg/kg (Rattus norvegicus [16]): 50% | inhibition in vivo at 0.05 mg/kg (Rattus norvegicus [17]): 0% | inhibition in vivo at 0.5 mg/kg (Rattus norvegicus [18]): 0% | inhibition (INH) (Rattus norvegicus [19]): 0% | LD50 [1]: ≥ 1000 mg/kg | Activity (Rattus norvegicus [20]): 30% | Activity (Rattus norvegicus [21]): 70% | minimal effective dose (Mus musculus [22]): 10 mg/kg | Activity (Mus musculus [23]): 30 mg/kg | Activity (Rattus norvegicus [24]): 31% | Activity (Rattus norvegicus [25]): 12% | Time (Felis catus [26]): 126 min | Time (Felis catus [27]): -22 min | Time (Felis catus [28]): 94 min | Time (Felis catus [29]): -4 min | Activity (Rattus norvegicus [30]): 35.5% | Activity (Rattus norvegicus [31]): 7.8% | ED50 (Mus musculus [32]): 8.3 mg/kg | ED50 (Rattus norvegicus [33]): 5.9 mg/kg | Activity (Mus musculus [34]): 92% | Activity (Mus musculus [35]): 60% | Activity (Rattus norvegicus [8]): 90% | minimal effective dose (Rhesus monkey [36]): 0.1 mg/kg | minimal effective dose (Canis familiaris): 0.5 mg/kg

CC1CCC2=C(C1)c1c(OC(=O)CCCN3CCCCC3)cc(C(C)CCCc3ccc(F)cc3)cc1OC2(C)C.Cl (configuration not stated)
inhibition in vivo at 0.1 mg/kg (Rattus norvegicus [16]): 10% | inhibition in vivo at 0.4 mg/kg (Rattus norvegicus [37]): 70% | inhibition in vivo at 0.8 mg/kg (Rattus norvegicus [38]): 90% | LD50 [1]: ≥ 1000 mg/kg | Activity (Rattus norvegicus [39]): 50% | Activity (Rattus norvegicus [40]): 25% | Activity (Rattus norvegicus [41]): 19% | Time (Felis catus [42]): 50 min | Time (Felis catus [43]): 73 min | ED50 (Mus musculus [32]): 1.76 mg/kg | Activity (Rattus norvegicus [44]): 38% | ED50 (Rattus norvegicus [33]): 1.46 mg/kg | Activity (Mus musculus [7]): 73% | Activity (Rattus norvegicus [8]): 72% | Activity (Rattus norvegicus [45]): 95% | minimal effective dose (Rhesus monkey [36]): 1 mg/kg | minimal effective dose (Canis familiaris): 0.2 mg/kg | Activity (Rattus norvegicus [10]): 75%

Source: ChEMBL document CHEMBL3272295, “Drugs derived from cannabinoids. 5. delta6a,10a-Tetrahydrocannabinol and heterocyclic analogs containing aromatic side chains” (J Med Chem, 1976)
